One assay has as its target T1, mouse CTSK in mouse OCs (Mus musculus, UniProt P55097).
T1 construct: endogenous in cells; host or cells: osteoclasts differentiated from C57BL/6 mouse bone marrow
T1 sequence (P55097 115-329): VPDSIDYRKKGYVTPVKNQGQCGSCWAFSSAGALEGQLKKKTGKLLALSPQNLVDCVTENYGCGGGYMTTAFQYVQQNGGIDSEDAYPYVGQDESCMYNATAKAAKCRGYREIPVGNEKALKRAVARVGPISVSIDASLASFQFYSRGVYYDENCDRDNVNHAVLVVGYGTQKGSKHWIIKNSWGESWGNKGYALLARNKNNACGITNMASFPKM
Briefly: Residual cathepsin activity in mice osteoclasts (GB123 gel). It is filed as cell-based. As to conditions: 5 μM, 2 h, then GB123 2 h. On the procedure:
(§1) Human and mouse CTSK species have a high degree of structural commonality. […] Therefore, to investigate the inhibitors’ cross-reactivity with mouse CTSK, mouse OCs were cultivated with mouse bone marrow cells stimulated with M-CSF and RANKL for 9–10 days. In addition, control cells differentiated into macrophages that highly express active cathepsins but not CTSK and were generated by treatment with M-CSF and IL-4.[49] Both intact OC and macrophage cells were incubated for 2 h with GD20, vehicle, or ODN, followed by a 2 h incubation with pan-cathepsin probe GB123. The CTSK-specific fluorescent band near 25 kDa disappeared in cells treated with GD20, whereas the other competing band remained unaltered (Figure 7a). Mice OS samples were blotted to identify the different cathepsins in the sample (Figure S9b).
(§2) Figure 7 CTSK inhibition in mice osteoclasts. (a) Activity and expression of CTSK in mouse OCs were assessed in the presence of indicated inhibitors. Intact OCs were treated for 2 h with 5 μM inhibitor in the culture medium, followed by 2 h of labeling of residual enzyme activity by GB123. Samples were analyzed by SDS-PAGE and scanned for fluorescence with a Typhoon scanner at 635/670 nm. Western blot with anti-CTSK is shown aside. […] Samples were analyzed by SDS-PAGE and scanned for fluorescence with a Typhoon scanner at 635/670 nm. […]

Another assay has as its target T2, CTSK in human OCs (Homo sapiens, UniProt P43235).
T2 construct: endogenous in cells; host or cells: primary human osteoclasts differentiated from blood monocytes with M-CSF and RANKL
T2 sequence (P43235 115-329): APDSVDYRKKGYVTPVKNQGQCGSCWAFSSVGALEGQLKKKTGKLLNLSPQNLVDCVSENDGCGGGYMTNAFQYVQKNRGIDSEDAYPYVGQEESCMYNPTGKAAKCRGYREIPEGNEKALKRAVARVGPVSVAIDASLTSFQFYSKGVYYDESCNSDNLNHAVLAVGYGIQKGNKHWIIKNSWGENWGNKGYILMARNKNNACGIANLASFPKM
The assay can be described thus: Gel-based residual cathepsin activity in human osteoclasts (GB123) and immunoblot. It is filed as cell-based. On the procedure: Figure 6 CTSK inhibition in human osteoclasts. (a) Scheme of the process of maturation of osteoclasts (OCs) derived from human monocytes in the presence of RANKL and M-CSF. (b) Representative pictures of bone resorption after incubation with human OCs treated with vehicle or inhibitors for 10–14 days. Bone resorption was observed by a toluidine blue stain. Increased staining indicates a higher number of resorption pits and greater bone resorption. (c) Quantitative analysis of pit formation in bone slices after incubation with OC treated with GD20 or ODN (1, 5 μM) relative to vehicle treated slices. Data represent mean ± standard errors, and asterisks represent p values relative to control, *p < 0.05, **p < 0.01, ***p < 0.001, n = 3 bone slices. (d) Representative images of tartrate-resistant acid phosphatase (TRAP) staining of the human osteoclasts on bone slices in the presence of vehicle or inhibitors, as indicated. […] (e) Quantification of osteoclasts number on bone slices after inhibitor treatment, detected by TRAP staining. (f) Human OCs were treated with vehicle or increasing concentrations of GD20 for 11 days (changing the medium every 2–3 days). The activity of CTSK in the cells was detected by 2 h labeling with a pan-cathepsin activity-based probe, GB123, followed by a fluorescence scan of the SDS-PAGE detecting CTSK attached to the probe; the red arrow points to the bands of CTSK (above 25 kDa). CTSK immunoblot of the same OCs is presented aside.
Cells were seeded 3 × 10^6 per 24-well plate (Primaria, Corning) in 1 mL of RPMI 1640 medium supplemented with 10% FBS and 50 μg/mL gentamicin. The next day, the medium was removed, and the adherent cells were washed with α-MEM and cultured for 14 consecutive days in α-MEM supplemented with 10% FBS, 1% penicillin, 1% streptomycin (Biological Industries), 100 ng/mL RANKL (R&D Systems), and 25 ng/mL M-CSF (R&D Systems) (for osteoclast) or with 25 ng/mL M-CSF and IL-4 (macrophage). Every 3 days, the media was changed with the required amount of M-CSF and RANKL until the giant osteoclasts appeared or with M-CSF and IL-4. […]

Assay [1] relates to IL-4-induced macrophage cells. Briefly: Residual cathepsin activity in IL-4-induced macrophages lacking CTSK (GB123 gel). Conditions: 5 μM, 2 h, then GB123. It is filed as cell-based, mouse. The procedure: as §1, §2

Turning to `CC(C)C[C@H](N[C@@H](c1ccc(-c2ccc(S(C)(=O)=O)cc2)cc1)C(F)(F)F)C(=O)NCC(=O)COC(=O)[C@@H]1CCCN1C(=O)[C@H](CC(C)C)NC(=O)OCC1c2ccccc2-c2ccccc21` [GD20], at mouse CTSK in mouse OCs, the “CTSK-specific fluorescent band near 25 kDa” value was “disappeared”. Also, at CTSK in human OCs (1 μM, 11 days, GB123 labeling), the “CTSK activity in human OC” value is recorded as “blocked most of the CTSK activity”. Further, the “CTSB activity in human OC” value at CTSK in human OCs (accompanying CTSK inhibition, GB123 labeling) is “increase in CTSB activity”. The “CTSK protein levels by immunoblot” value at CTSK in human OCs (all inhibitor concentrations) was “elevated CTSK protein levels”. The “inhibition of cathepsin bands in macrophages that lack CTSK” value in assay [1] was “lack of inhibition of any band”.

The values above are taken from article PMC11938014, “Development and Application of Small Molecule–Peptide Conjugates as Cathepsin K-Specific Covalent Irreversible Inhibitors in Human Osteoclast and Lung Cancer” (JACS Au, 2025).
